According to patent US12121596B2, “Near infrared fluorescent dyes, formulations and related methods” (Washington University, priority 2019, dated 2024):
Positions of bridges follow the written chain, without caps; N, C: chain ends. Non-standard residues stand in square brackets, D forms with d. Residues, ends and D or L forms follow the SMILES beside them. Primed or numbered codes have the meaning given here. *: point of attachment. X1 = CC1(C)C(/C=C/C=C/C=C/C=C2/N(CCC(=O)*)c3ccc4ccccc4c3C2(C)C)=[N+](CCC(=O)[O-])c2ccc3ccccc3c21; Cypate′ = not defined here

What was measured:
4T1 luc/GFP cells = test: In vitro blocking of LS301 binding and internalization; assay type: cell-based, murine
Experimental: For in vitro blocking studies of LS301, 4T1 luc/GFP cells were treated for 24 h with LS301 alone, blocking peptide LCKLSL plus LS301, scrambled blocking peptide LGKLSL plus LS301, or unlabeled LS301 analog LS637 plus LS301. Cells were prepared for confocal microscopy.

[1] = test system: breast cancer patient-derived xenograft; test: In vivo NIR imaging of tumor retention; set-up: species or system mice; conditions: for tumor retention: control experiments, patient-derived xenograft
Experimental: To establish the various tumor models, nude, Balb/c, or C57BL6 mice were injected with 10^5-10^7 tumor cells subcutaneously on unilateral or bilateral flanks. In some cases, spontaneous tumor models were used. Animals injected subcutaneously with saline served as sham tumor controls. For near-infrared imaging, 100 μL volumes of 60 μM LS301 or cypate in PBS were injected intravenously by lateral tail vein, and animals were imaged using a Pearl Small Animal Imager (LI-COR Biotechnology, Lincoln, NE, USA) at the indicated time points. In some experiments, probes were formulated in 1% albumin in PBS. Animals were shaved using commercially available hair removal equipment and products before imaging. For experiments involving further tissue analysis, animals were anesthetized with isoflurane and euthanized by cervical dislocation under anesthesia. Organs were harvested by surgical dissection. For quantitative organ biodistribution studies, individual regions of interest were drawn around each organ of interest, and fluorescence was quantified using the Pearl Small Animal Imager software.

[2] = test system: lung (A549), breast (MDA-MB-231 and 4T1), and myeloid leukemia (HL60) cell lines; test: Cellular uptake in cancer cell lines, live-cell imaging; assay type: cell-based; conditions: A549, MDA-MB-231, 4T1, HL60
Experimental: In general, cultured cancer cells were grown and incubated with the indicated amount of probe in Lab-Tek 8-chambered slides for the indicated time durations. Cells were washed with PBS at selected time points and underwent conventional slide preparation, ICC if indicated, and viewing under epifluorescence or confocal. For live-cell imaging of LS301, internalization at 37° C. in human dermal fibroblasts (Coriell Cell Technologies) and tumor cells including 4T1luc, MDA-MB-231, 5TGM, A549, and HL60 (ATCC) cells were cultured in appropriate media supplemented with 10% […] and penicillin/streptomycin and incubated at 37° C. in 5% CO2 incubator. The cells were grown on Lab-Tek 8-chamber slides (Nunc Inc. Rochester, NY) in the culture medium overnight before the experiment. The compounds were dissolved in 20% DMSO in […] PBS (pH 7.4) (Sigma, St. Louis, MO) for stocking solution and mixed with culture medium to reach the final concentration. Cells were incubated with 1 μM compounds in chamber slides at different time points at 37° C. After LS301 treatment, the culture media was removed and followed by adding culture media containing SYTO 13 nuclear dye from (Thermo Fisher Scientific, Waltham, MA) for 45 minutes at 37° C. For assessing cellular colocalization of LS301 with lipid rafts, the Vybrant AlexaFluor 488 Lipid Raft Labeling Kit (Thermo Fisher Scientific, Waltham, MA, USA) was used per the manufacturer's instructions. […]. LS301 and AlexaFluor 488 fluorescence were imaged using the cypate filter set (Ex/Em 750-800 nm/818-873 nm) and fluorescein isothiocyanate (FITC) filter set (Ex/Em 460-500/510-560 nm), respectively.

heart = conditions: in vivo
diverse tumors = test: LS838 fluorescence and tumor retention

LCKLSL
effect on binding and internalization of LS301 in cells (4T1 luc/GFP cells): inhibited the binding and internalization of LS301

CC1(C)C(/C=C/C=C/C=C/C=C2/N(CCC(=O)O)c3ccc4ccccc4c3C2(C)C)=[N+](CCC(=O)[O-])c2ccc3ccccc3c21 [Cypate]
tumor retention [1]: not retained | tumor retention with or without albumin formulation ([1]; in vivo): did not retain | retention in cell lines [2]: only transient retention

Cypate-cyclo(Cys-Arg-Gly-Asp-Ser-Pro-Cys)-Lys-OH ({Cypate′}-CRGDSPCK-OH; disulfide 1-7) [scrambled LS301 peptide analog]
tumor retention [1]: not retained

COc1cccc2c1C(=O)c1c(O)c3c(c(O)c1C2=O)C[C@@](O)(C(=O)CO)C[C@@H]3O[C@H]1C[C@H](NC(=O)CC[N+]2=C(/C=C/C=C/C=C/C=C3/N(CCC(=O)N[C@@H]4CSSC[C@@H](C(=O)N[C@@H](CCCCN)C(=O)O)NC(=O)[C@@H]5CCCN5C(=O)[C@H](CO)NC(=O)[C@H](CC(=O)O)NC(=O)[C@H](CCCNC(=N)N)NC(=O)CNC4=O)c4ccc5ccccc5c4C3(C)C)C(C)(C)c3c2ccc2ccccc32)[C@H](O)[C@H](C)O1 [LS766, doxorubicin-cypate-cyclic(DCys-Gly-Arg-Asp-Ser-Pro-Cys)-Lys-OH]
accumulation in the heart (heart): does not accumulate in the heart

CC1(C)C(/C=C/C=C/C=C/C=C2/N(CCC(=O)N[C@@H]3CSSC[C@@H](C(=O)N[C@@H](Cc4ccc(O)cc4)C(=O)O)NC(=O)[C@@H]4CCCN4C(=O)[C@H](CO)NC(=O)[C@H](CC(=O)O)NC(=O)[C@H](CCCNC(=N)N)NC(=O)CNC3=O)c3ccc4ccccc4c3C2(C)C)=[N+](CCC(=O)[O-])c2ccc3ccccc3c21 [LS838, cypate-Cyclo(Cys-Gly-Arg-Asp-Ser-Pro-Cys)-Tyr-OH] (X1-[dC]GRDSPCY-OH; disulfide 1-7)
retention in tumors (diverse tumors): selectively remains in diverse tumors without significant loss of fluorescence over time
